Reference: publication PMC12030627, “Radioiodinated Bicyclic RGD Peptide Derivatives for Enhanced Tumor Accumulation” (Pharmaceuticals, 2025)
Where two headings read alike, the source gives them in different places. Starred links: 1 amine or outer side, 2 acyl side, 3 side chain; linkers in the order of their positions; H or OH if unused. Positions of bridges follow the written chain, without caps; N, C: chain ends. Non-standard residues stand in square brackets, D forms with d. Residues, ends and D or L forms follow the SMILES beside them. *: point of attachment. Butanoyl(4-(4-I-phenyl)) = O=C(CCCc1ccc(I)cc1)*; TBMB = c1c(C[*:1])cc(C[*:3])cc1C[*:2]; Benzoyl(3-I) = O=C(c1cccc(I)c1)*; 4Abz = Nc1ccc(C(=O)O)cc1

Test: Biodistribution in U-87 MG tumor-bearing mice
Format: in vivo, BALB/c nu-nu mice
Conditions: male, BALB/c nu-nu, mouse, iv, 37 kBq, total radioactivity; for tissue uptake at 5 min: 5 min after i.v. administration; for tissue uptake at 5 min / tissue uptake at 0.5 h / tissue uptake at 1 h / tissue uptake at 2 h / tissue uptake at 6 h / tissue uptake at 12 h / tissue uptake at 24 h: U-87 MG-bearing mice, mean ± SD, n = 3; for tissue uptake at 0.5 h: 30 min after i.v. administration; for tissue uptake at 1 h: 1 h after i.v. administration; for tissue uptake at 2 h: 2 h after i.v. administration; for tissue uptake at 6 h: 6 h after i.v. administration; for tissue uptake at 12 h: 12 h after i.v. administration; for tissue uptake at 24 h: 24 h after i.v. administration
Procedure: Animal experiments were performed in compliance with institutional animal care regulations, with the study protocol approved by the Experimental Animal Committee of Osaka Medical and Pharmaceutical University (Approval Numbers: 21–76, 22–76, and 23–76). Four-week-old male BALB/c nu-nu mice (Japan SLC, Shizuoka, Japan) were housed under a 12 h light/12 h dark cycle with free access to food and water. Tumor-bearing mice were established by suspending U-87 MG cells (2 × 10^6 cells/mouse) in PBS(–) and subcutaneously injecting 100 μL of the suspension into the right hind leg. For co-implantation models, A549 cells (2 × 10^6 cells/mouse) were suspended in PBS(–) and inoculated (100 μL) into the left hind leg of the same mice already inoculated with U-87 MG cells. Mice with tumor size approximately 10 mm in diameter, 4–5 weeks after inoculation, were used for biodistribution studies. Animals in which either tumor was not viable were excluded from the experiment.
U-87 MG-bearing mice (n = 42, 8–9 weeks old; 22–27 g) were randomly assigned into groups and administered [^125I]bcRGDpal or [^125I]bcRGDiba via intravenous injection (37 kBq in 100 μL of PBS containing 0.1% Tween 80 (PBS-T80)). At 5 min, 30 min, 1 h, 2 h, 6 h, 12 h, or 24 h post-injection, the mice were euthanized (n = 3 per time point). The heart, kidneys, liver, brain, pancreas, spleen, lung, small intestine, large intestine, muscle, skin, stomach, bone, and tumors were excised. Each organ’s weight and radioactivity were measured by a NaI well-type scintillation counter, and the % ID/g was calculated. To investigate the correlation between integrin expression and radioactivity accumulation, biodistribution at 2 h after administration of [^125I]bcRGDpal or [^125I]bcRGDiba was assessed in A549 and U-87 MG co-implantation mice (n = 5) using the same procedure. Additionally, co-implantation mice were injected with [^125I]bcRGDdimer (37 kBq/100 μL PBS-T80) and euthanized at 30 min, 2 h, and 4 h post-injection (n = 4 per time point), and % ID/g values were calculated as described above. The minimum sample size needed for the biodistribution study in U-87 MG-bearing mice was calculated using G Power software version 3.1.9.7. The calculation was based on a two-tailed test, with an effect size of 3.9, a significance level (α) of 0.05, and a statistical power (1 − β) of 0.8. […] The minimum required sample size for the biodistribution study in A549 and U-87 MG co-implantation mice was also calculated to be four animals per group (effect size = 2.5, α = 0.05, 1 − β = 0.8). To guarantee objective results, the experiment was carried out in a blinded manner. Specifically, drug administration and radioactivity measurements were conducted by different investigators to eliminate potential bias.

[1] = U-87 MG tumor, read-out: Radioactivity in U-87 MG tumor
[2] = blood, read-out: Radioactivity in blood
[3] = bone, read-out: Radioactivity in bone
[4] = brain, read-out: Radioactivity in brain
[5] = heart, read-out: Radioactivity in heart
[6] = kidneys, read-out: Radioactivity in kidneys
[7] = large intestine, read-out: Radioactivity in large intestine
[8] = liver, read-out: Radioactivity in liver

Which tissue uptake at 5 min [1] does the source give for N=C(N)NCCC[C@@H]1NC(=O)[C@H]2CSCc3cc(cc(c3)CSC[C@H](C(N)=O)NC(=O)[C@H](CC(=O)O)NC(=O)CNC1=O)CSC[C@H](NC(=O)CNC(=O)[C@H](CO)NC(=O)c1ccc(NC(=O)CNC(=O)[C@H](CO)NC(=O)[C@@H]3CCCN3C(=O)[C@@H]3CCCN3C(=O)[C@@H]3CCCN3C(=O)[C@H](CCCCNC(=O)c3cccc(I)c3)NC(=O)CCCc3ccc(I)cc3)cc1)C(=O)N[C@@H](Cc1c[nH]cn1)C(=O)N1CCC[C@H]1C(=O)N[C@@H](CCC(N)=O)C(=O)N2 [[^125I]bcRGDiba] ({Butanoyl(4-(4-I-phenyl))}-K(Benzoyl(3-I))PPPSG[4Abz]SGCHPQ[dC]RGD[dC]-NH2; linker 10-14-18 via TBMB) here?
Its tissue uptake at 5 min is 2.2 ± 0.5 %ID/g.

And the tissue uptake at 0.5 h [1]?
Its tissue uptake at 0.5 h is 3.4 ± 0.5 %ID/g.

And the tissue uptake at 1 h [1]?
Its tissue uptake at 1 h is 3.6 ± 0.8 %ID/g.

And the tissue uptake at 2 h [1]?
Its tissue uptake at 2 h is 3.6 ± 0.7 %ID/g.

What about the tissue uptake at 6 h [1] of the same compound?
Its tissue uptake at 6 h is 2.9 ± 0.4 %ID/g.

And the tissue uptake at 12 h [1]?
The tissue uptake at 12 h was 1.4 ± 0.3 %ID/g.

And the tissue uptake at 24 h [1]?
Its tissue uptake at 24 h is 0.5 ± 0.1 %ID/g.

And the tissue to tissue ratio (U-87 MG tumor/blood, all time points (5 min to 24 h))?
Its tissue to tissue ratio is < 1.

And the tissue uptake at 5 min [2]?
Its tissue uptake at 5 min is 23.3 ± 2.9 %ID/g.

What about the tissue uptake at 0.5 h [2] of the same compound?
The tissue uptake at 0.5 h was 18.5 ± 1 %ID/g.

And the tissue uptake at 1 h [2]?
The tissue uptake at 1 h was 15.4 ± 1.2 %ID/g.

And the tissue uptake at 2 h [2]?
The tissue uptake at 2 h was 14 ± 1.5 %ID/g.

What about the tissue uptake at 6 h [2] of the same compound?
The tissue uptake at 6 h was 8.5 ± 1 %ID/g.

What about the tissue uptake at 12 h [2] of the same compound?
Its tissue uptake at 12 h is 3.9 ± 0.7 %ID/g.

What about the tissue uptake at 24 h [2] of the same compound?
Its tissue uptake at 24 h is 1.4 ± 0.1 %ID/g.

What about the tissue uptake at 5 min [3] of the same compound?
The tissue uptake at 5 min was 1.7 ± 0.3 %ID/g.

And the tissue uptake at 0.5 h [3]?
The tissue uptake at 0.5 h was 1.9 ± 0.6 %ID/g.

What about the tissue uptake at 1 h [3] of the same compound?
The tissue uptake at 1 h was 1.6 ± 0.4 %ID/g.

What about the tissue uptake at 2 h [3] of the same compound?
The tissue uptake at 2 h was 1.5 ± 0.3 %ID/g.

What about the tissue uptake at 6 h [3] of the same compound?
Its tissue uptake at 6 h is 1.3 ± 0.1 %ID/g.

And the tissue uptake at 12 h [3]?
The tissue uptake at 12 h was 0.6 ± 0.2 %ID/g.

What about the tissue uptake at 24 h [3] of the same compound?
The tissue uptake at 24 h was 0.3 ± 0.1 %ID/g.

What about the tissue uptake at 5 min [4] of the same compound?
Its tissue uptake at 5 min is 0.6 ± 0.2 %ID/g.

And the tissue uptake at 0.5 h [4]?
The tissue uptake at 0.5 h was 0.4 ± 0.1 %ID/g.

What about the tissue uptake at 1 h [4] of the same compound?
The tissue uptake at 1 h was 0.4 %ID/g.

What about the tissue uptake at 2 h [4] of the same compound?
Its tissue uptake at 2 h is 0.3 %ID/g.

And the tissue uptake at 6 h [4]?
The tissue uptake at 6 h was 0.2 %ID/g.

And the tissue uptake at 12 h [4]?
Its tissue uptake at 12 h is 0.1 %ID/g.

And the tissue uptake at 5 min [5]?
The tissue uptake at 5 min was 7.4 ± 1.4 %ID/g.

What about the tissue uptake at 0.5 h [5] of the same compound?
The tissue uptake at 0.5 h was 5.3 ± 0.5 %ID/g.

And the tissue uptake at 1 h [5]?
The tissue uptake at 1 h was 4.5 ± 0.8 %ID/g.

And the tissue uptake at 2 h [5]?
The tissue uptake at 2 h was 4.2 ± 0.1 %ID/g.

What about the tissue uptake at 6 h [5] of the same compound?
Its tissue uptake at 6 h is 2.7 ± 0.2 %ID/g.

And the tissue uptake at 12 h [5]?
The tissue uptake at 12 h was 1.3 ± 0.1 %ID/g.

And the tissue uptake at 24 h [5]?
The tissue uptake at 24 h was 0.5 %ID/g.

What about the tissue uptake at 5 min [6] of the same compound?
Its tissue uptake at 5 min is 7.8 ± 0.5 %ID/g.

And the tissue uptake at 0.5 h [6]?
Its tissue uptake at 0.5 h is 7.1 ± 1.4 %ID/g.

What about the tissue uptake at 1 h [6] of the same compound?
Its tissue uptake at 1 h is 7.3 ± 0.4 %ID/g.

What about the tissue uptake at 2 h [6] of the same compound?
Its tissue uptake at 2 h is 5.5 ± 0.3 %ID/g.

What about the tissue uptake at 6 h [6] of the same compound?
The tissue uptake at 6 h was 3.9 ± 0.4 %ID/g.

And the tissue uptake at 12 h [6]?
Its tissue uptake at 12 h is 1.8 ± 0.1 %ID/g.

What about the tissue uptake at 24 h [6] of the same compound?
Its tissue uptake at 24 h is 0.8 ± 0.1 %ID/g.

And the tissue uptake at 5 min [7]?
The tissue uptake at 5 min was 1.5 ± 0.7 %ID/g.

What about the tissue uptake at 0.5 h [7] of the same compound?
Its tissue uptake at 0.5 h is 1 ± 0.1 %ID/g.

What about the tissue uptake at 1 h [7] of the same compound?
Its tissue uptake at 1 h is 1 ± 0.1 %ID/g.

And the tissue uptake at 2 h [7]?
Its tissue uptake at 2 h is 7.1 ± 2 %ID/g.

And the tissue uptake at 6 h [7]?
The tissue uptake at 6 h was 11.3 ± 2 %ID/g.

And the tissue uptake at 12 h [7]?
The tissue uptake at 12 h was 3.4 ± 1 %ID/g.

And the tissue uptake at 24 h [7]?
The tissue uptake at 24 h was 2.2 ± 0.2 %ID/g.

What about the tissue uptake at 5 min [8] of the same compound?
The tissue uptake at 5 min was 7.6 ± 0.5 %ID/g.

What about the tissue uptake at 0.5 h [8] of the same compound?
Its tissue uptake at 0.5 h is 6.9 ± 0.2 %ID/g.
